Where two headings read alike, the source gives them in different places. Bridge positions count the residues as written; N and C are the ends. Square brackets hold non-standard residues; d marks the D form. Peptide text beside a SMILES is read from it. 1Nal = N[C@@H](Cc1cccc2ccccc12)C(=O)O
Columns and labels:
[1] = tested on: thapsigargin-induced IL-2 production in human whole blood
[2] = tested on: thapsigargin-induced IFN-g production in human whole blood; type: cell-based
[3] = read-out: Analogue Activity (IC50) WB/IL-2
[4] = read-out: Analogue Activity (IC50) WB/IFNg

Compound	IC50 [1, 3]	IC50 [2, 4]	IC50 ([1]; read-out: Average IC50 IL-2)	IC50 ([2]; read-out: Average IC50 IFNg)
CC[C@H](C)[C@@H]1NC(=O)[C@H](CCCCN)NC(=O)[C@@H](NC(=O)[C@H](CCCCN)NC(=O)[C@@H](NC(=O)[C@H](CC(N)=O)NC(=O)[C@@H](NC(=O)[C@@H](NC(=O)[C@@H](NC(=O)CN)C(C)C)[C@@H](C)CC)[C@@H](C)CC)C(C)C)CSSC[C@@H]2NC(=O)[C@H](CCCCN)NC(=O)CNC(=O)[C@H](Cc3ccccc3)NC(=O)[C@H](CCCNC(=N)N)NC(=O)[C@H](CCSC)NC(=O)CNC(=O)[C@H](C)NC(=O)[C@H](CCCCN)NC(=O)[C@H](CCCCN)NC(=O)[C@@H]3CSSC[C@@H](C(=O)N[C@H](C(=O)N4CCC[C@H]4C(=O)N[C@@H](CCCCN)C(=O)O)[C@@H](C)O)NC(=O)[C@H](Cc4c[nH]cn4)NC(=O)[C@H](CSSC[C@H](NC(=O)[C@H](CCC(N)=O)NC(=O)[C@H](CCCNC(=N)N)NC(=O)[C@H](CO)NC1=O)C(=O)N[C@@H](CC(C)C)C(=O)N[C@@H](CCCNC(=N)N)C(=O)N1CCC[C@H]1C(=O)N3)NC(=O)[C@H](CCCCN)NC(=O)CNC(=O)[C@H](CC(N)=O)NC(=O)[C@H](CCSC)NC2=O [E16R] (H-GVIINVKCKISRQCLRPCKKAGMRFGKCMNGKCHCTPK-OH; disulfide 8-28, 14-33, 18-35)	0.556 nM	0.454 nM		
CC[C@H](C)[C@@H]1NC(=O)[C@H](CCCCN)NC(=O)[C@@H](NC(=O)[C@H](CCCCN)NC(=O)[C@@H](NC(=O)[C@H](CC(N)=O)NC(=O)[C@@H](NC(=O)[C@@H](NC(=O)[C@@H](NC(=O)CN)C(C)C)[C@@H](C)CC)[C@@H](C)CC)C(C)C)CSSC[C@@H]2NC(=O)[C@H](CCCCN)NC(=O)CNC(=O)[C@H](Cc3ccccc3)NC(=O)[C@H](CCCNC(=N)N)NC(=O)[C@H](CCSC)NC(=O)[C@H](Cc3cccc4ccccc34)NC(=O)[C@H](C)NC(=O)[C@H](CCCCN)NC(=O)[C@H](CCCCN)NC(=O)[C@@H]3CSSC[C@@H](C(=O)N[C@H](C(=O)N4CCC[C@H]4C(=O)N[C@@H](CCCCN)C(=O)O)[C@@H](C)O)NC(=O)[C@H](Cc4c[nH]cn4)NC(=O)[C@H](CSSC[C@H](NC(=O)[C@H](CCC(N)=O)NC(=O)[C@H](CCCNC(=N)N)NC(=O)[C@H](CO)NC1=O)C(=O)N[C@@H](CC(C)C)C(=O)N[C@@H](CCC(=O)O)C(=O)N1CCC[C@H]1C(=O)N3)NC(=O)[C@H](CCCCN)NC(=O)CNC(=O)[C@H](CC(N)=O)NC(=O)[C@H](CCSC)NC2=O [G22Nal] (H-GVIINVKCKISRQCLEPCKKA[1Nal]MRFGKCMNGKCHCTPK-OH; disulfide 8-28, 14-33, 18-35)	10.3 nM	10.6 nM		
CC[C@H](C)[C@@H]1NC(=O)[C@H](CCCCN)NC(=O)[C@@H](NC(=O)[C@H](CCCCN)NC(=O)[C@@H](NC(=O)[C@H](CC(N)=O)NC(=O)[C@@H](NC(=O)[C@@H](NC(=O)[C@@H](NC(=O)CN)C(C)C)[C@@H](C)CC)[C@@H](C)CC)C(C)C)CSSC[C@@H]2NC(=O)[C@H](CCCCN)NC(=O)CNC(=O)[C@H](Cc3ccccc3)NC(=O)[C@H](CCCNC(=N)N)NC(=O)[C@H](CCSC)NC(=O)CNC(=O)[C@H](C)NC(=O)[C@H](CCCCN)NC(=O)[C@H](CCCCN)NC(=O)[C@@H]3CSSC[C@@H](C(=O)N[C@H](C(=O)N4CCC[C@H]4C(=O)N[C@@H](CCCCN)C(=O)O)[C@@H](C)O)NC(=O)[C@H](Cc4c[nH]cn4)NC(=O)[C@H](CSSC[C@H](NC(=O)[C@H](CCC(N)=O)NC(=O)[C@H](CCCNC(=N)N)NC(=O)[C@H](CO)NC1=O)C(=O)N[C@@H](CC(C)C)C(=O)N[C@@H](CCC(=O)O)C(=O)N[C@@H](C)C(=O)N3)NC(=O)[C@H](CCCCN)NC(=O)CNC(=O)[C@H](CC(N)=O)NC(=O)[C@H](CCSC)NC2=O [P17A] (H-GVIINVKCKISRQCLEACKKAGMRFGKCMNGKCHCTPK-OH; disulfide 8-28, 14-33, 18-35)	0.173 nM	0.173 nM		
CC[C@H](C)[C@@H]1NC(=O)[C@H](CCCCN)NC(=O)[C@@H](NC(=O)[C@H](CCCCN)NC(=O)[C@@H](NC(=O)[C@H](C)NC(=O)[C@@H](NC(=O)[C@@H](NC(=O)[C@@H](NC(=O)CN)C(C)C)[C@@H](C)CC)[C@@H](C)CC)C(C)C)CSSC[C@@H]2NC(=O)[C@H](CCCCN)NC(=O)CNC(=O)[C@H](Cc3ccccc3)NC(=O)[C@H](CCCNC(=N)N)NC(=O)[C@H](CCSC)NC(=O)CNC(=O)[C@H](C)NC(=O)[C@H](CCCCN)NC(=O)[C@H](CCCCN)NC(=O)[C@@H]3CSSC[C@@H](C(=O)N[C@H](C(=O)N4CCC[C@H]4C(=O)N[C@@H](CCCCN)C(=O)O)[C@@H](C)O)NC(=O)[C@H](Cc4c[nH]cn4)NC(=O)[C@H](CSSC[C@H](NC(=O)[C@H](CCC(N)=O)NC(=O)[C@H](CCCNC(=N)N)NC(=O)[C@H](CO)NC1=O)C(=O)N[C@@H](CC(C)C)C(=O)N[C@@H](CCC(=O)O)C(=O)N1CCC[C@H]1C(=O)N3)NC(=O)[C@H](CCCCN)NC(=O)CNC(=O)[C@H](CC(N)=O)NC(=O)[C@H](CCSC)NC2=O [N5A] (H-GVIIAVKCKISRQCLEPCKKAGMRFGKCMNGKCHCTPK-OH; disulfide 8-28, 14-33, 18-35)	0.0679 nM	0.067 nM		
AVIINVKCKISRQCLEPCKKAGMRFGKCMNGKCHCTPK [Ala-1 (SEQ ID No: 1400)]			0.122 nM	0.119 nM
CC[C@H](C)[C@@H]1NC(=O)[C@H](CCCCN)NC(=O)[C@@H](NC(=O)[C@H](CCCCN)NC(=O)[C@@H](NC(=O)[C@H](CCC(=O)O)NC(=O)[C@@H](NC(=O)[C@@H](NC(=O)[C@@H](NC(=O)CN)C(C)C)[C@@H](C)CC)[C@@H](C)CC)C(C)C)CSSC[C@@H]2NC(=O)[C@H](CCCCN)NC(=O)CNC(=O)[C@H](Cc3ccccc3)NC(=O)[C@H](CCCNC(=N)N)NC(=O)[C@H](CCSC)NC(=O)CNC(=O)[C@H](C)NC(=O)[C@H](CCCCN)NC(=O)[C@H](CCCCN)NC(=O)[C@@H]3CSSC[C@@H](C(=O)N[C@H](C(=O)N4CCC[C@H]4C(=O)N[C@@H](CCCCN)C(=O)O)[C@@H](C)O)NC(=O)[C@H](Cc4c[nH]cn4)NC(=O)[C@H](CSSC[C@H](NC(=O)[C@H](CCC(N)=O)NC(=O)[C@H](CCCNC(=N)N)NC(=O)[C@H](CO)NC1=O)C(=O)N[C@@H](CC(C)C)C(=O)N[C@@H](CCC(=O)O)C(=O)N1CCC[C@H]1C(=O)N3)NC(=O)[C@H](CCCCN)NC(=O)CNC(=O)[C@H](CC(N)=O)NC(=O)[C@H](CCSC)NC2=O [N5E] (H-GVIIEVKCKISRQCLEPCKKAGMRFGKCMNGKCHCTPK-OH; disulfide 8-28, 14-33, 18-35)	0.1 nM	0.065 nM		
CC[C@H](C)[C@@H]1NC(=O)[C@H](CCCCN)NC(=O)[C@@H](NC(=O)[C@H](CCCCN)NC(=O)[C@@H](NC(=O)[C@H](CC(N)=O)NC(=O)[C@@H](NC(=O)[C@@H](NC(=O)[C@@H](NC(=O)CN)C(C)C)[C@@H](C)CC)[C@@H](C)CC)C(C)C)CSSC[C@@H]2NC(=O)[C@H](CCCCN)NC(=O)CNC(=O)[C@H](Cc3ccccc3)NC(=O)[C@H](CCCNC(=N)N)NC(=O)[C@H](CCSC)NC(=O)CNC(=O)[C@H](C)NC(=O)[C@H](CCCCN)NC(=O)[C@H](CCCCN)NC(=O)[C@@H]3CSSC[C@@H](C(=O)N[C@H](C(=O)N4CCC[C@H]4C(=O)N[C@@H](CCCCN)C(=O)O)[C@@H](C)O)NC(=O)[C@H](Cc4c[nH]cn4)NC(=O)[C@H](CSSC[C@H](NC(=O)[C@H](CCC(N)=O)NC(=O)[C@H](CCCNC(=N)N)NC(=O)[C@H](CO)NC1=O)C(=O)N[C@@H](C)C(=O)N[C@@H](CCC(=O)O)C(=O)N1CCC[C@H]1C(=O)N3)NC(=O)[C@H](CCCCN)NC(=O)CNC(=O)[C@H](CC(N)=O)NC(=O)[C@H](CCSC)NC2=O [L15A] (H-GVIINVKCKISRQCAEPCKKAGMRFGKCMNGKCHCTPK-OH; disulfide 8-28, 14-33, 18-35)	0.107 nM	0.107 nM		
GVIINVKCKASRQCLEPCKKAGMRFGKCMNGKCHCTPK [Ala-10 (SEQ ID No: 1408)]			0.05 nM	0.0296 nM
